Values joined by “and” are separate entries in the source; they are usually repeats but may differ in a detail not shown here. Equal entries are not always repeated.
Test system: 327498-153-R-J2-PDC complex spheroid growth, % test/control
Assay: Anticancer human tumor 327498-153-R-J2-PDC patient-derived uterine carcinosarcoma cell line growth inhibition [Asc]
Settings: for viability, T/C: stronger effect = lower value
Summary of the method: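 Tumor cells were grown as complex spheroids with human endothelial cells (HUVEC) and human mesenchymal stem cells as stroma. Agents were tested alone and in combination, in half-log steps down from the clinical Cmax, or from 10 microM where Cmax was unknown.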

[1] = curve of first compound, second compound 0.1 µM
[2] = curve of first compound, second compound 0.316 µM
[3] = curve of first compound, second compound 1 µM
[4] = second compound 0.1 µM, first compound 0.00949 µM
[5] = second compound 0.1 µM, first compound 0.03 µM
[6] = second compound 0.1 µM, first compound 0.0949 µM
[7] = second compound 0.1 µM, first compound 0.3 µM
[8] = second compound 0.316 µM, first compound 0.00949 µM
[9] = second compound 0.316 µM, first compound 0.03 µM
[10] = second compound 0.316 µM, first compound 0.0949 µM
[11] = second compound 0.316 µM, first compound 0.3 µM
[12] = second compound 1 µM, first compound 0.00949 µM
[13] = second compound 1 µM, first compound 0.03 µM
[14] = second compound 1 µM, first compound 0.0949 µM
[15] = second compound 1 µM, first compound 0.3 µM
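Note: spheroids exposed to compound for 7 days after 3 days of growth.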
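Throughout, for viability, T/C: 100% = DMSO vehicle control wells.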

`NC(=O)C(=Cn1cnc(-c2cc(C(F)(F)F)cc(C(F)(F)F)c2)n1)c1cncnc1` + Cc1c(S(C)(=O)=O)c(-c2cc(F)cc(N3CCN(c4ccc(NS(=O)(=O)c5ccc(NC(CCN6CCC(C(=O)OCCCP(=O)(O)O)CC6)CSc6ccccc6)c(S(=O)(=O)C(F)(F)F)c5)cc4)CC3)c2)c(-c2ccc(Cl)cc2)n1C(C)C showed an IC50 [1] of 36.4 nM, an IC50 [2] of 39.4 nM and an IC50 [3] of 31.2 nM. It also gave an IC50 (curve of first compound, second compound 3.16 µM) of 30.5 nM, an IC50 (curve of first compound, second compound 10 µM) of 46.6 nM and a viability, T/C (second compound 0.1 µM, first compound 0.000949 µM) of 88.6%. The viability, T/C (second compound 0.1 µM, first compound 0.003 µM) was 91.2%, the viability, T/C [4] was 84.6% and the viability, T/C [5] was 58.4%. For the same compound, the viability, T/C [6] was 9.68%, the viability, T/C [7] was 0.77% and the viability, T/C (second compound 0.316 µM, first compound 0.000949 µM) was 98.2%. The viability, T/C (second compound 0.316 µM, first compound 0.003 µM) was 93.3%, the viability, T/C [8] was 86.8% and the viability, T/C [9] was 64.3%. It also gave a viability, T/C [10] of 4.86%, a viability, T/C [11] of 0.51% and a viability, T/C (second compound 1 µM, first compound 0.000949 µM) of 99.7%. For the same compound, the viability, T/C (second compound 1 µM, first compound 0.003 µM) was 94.6%, the viability, T/C [12] was 87.1% and the viability, T/C [13] was 53.1%. The viability, T/C [14] was 3.7%, the viability, T/C [15] was 1.44% and the viability, T/C (second compound 3.16 µM, first compound 0.000949 µM) was 95.8%. The viability, T/C (second compound 3.16 µM, first compound 0.003 µM) was 90.7%, the viability, T/C (second compound 3.16 µM, first compound 0.00949 µM) was 93.4% and the viability, T/C (second compound 3.16 µM, first compound 0.03 µM) was 50.5%. For the same compound, the viability, T/C (second compound 3.16 µM, first compound 0.0949 µM) was 4.58%, the viability, T/C (second compound 3.16 µM, first compound 0.3 µM) was 0.43% and the viability, T/C (second compound 10 µM, first compound 0.000949 µM) was 168%. For the same compound, the viability, T/C (second compound 10 µM, first compound 0.003 µM) was 168%, the viability, T/C (second compound 10 µM, first compound 0.00949 µM) was 168% and the viability, T/C (second compound 10 µM, first compound 0.03 µM) was 78.8%. It also gave a viability, T/C (second compound 10 µM, first compound 0.0949 µM) of 4.73% and a viability, T/C (second compound 10 µM, first compound 0.3 µM) of 0.54%.

`CNC(C)C(=O)NC1CN(S(=O)(=O)c2cccc(S(=O)(=O)N3CCC4CCC(C(=O)NC(c5ccccc5)c5ccccc5)N4C(=O)C(NC(=O)C(C)NC)C3)c2)CCC2CCC(C(=O)NC(c3ccccc3)c3ccccc3)N2C1=O` (stereo not drawn) + CCN1C(C(=O)NC23CCC(C(=O)O)(CC2)CC3)C(c2cccc(Cl)c2F)C2(C(=O)Nc3cc(Cl)ccc32)C12CCCCC2 was tested, and the IC50 (curve of first compound, second compound 0.03 µM) was over 1000 nM, the IC50 (curve of first compound, second compound 0.0949 µM) was over 1000 nM and the IC50 (curve of first compound, second compound 0.3 µM) was under 3.16 nM. For the same compound, the IC50 (curve of first compound, second compound 0.949 µM) was under 3.16 nM, the IC50 (curve of first compound, second compound 3 µM) was under 3.16 nM and the viability, T/C (second compound 0.03 µM, first compound 0.00316 µM) was 92.8%. For the same compound, the viability, T/C (second compound 0.03 µM, first compound 0.01 µM) was 84.1%, the viability, T/C (second compound 0.03 µM, first compound 0.0316 µM) was 85.6% and the viability, T/C (second compound 0.03 µM, first compound 0.1 µM) was 91.7%. The viability, T/C (second compound 0.03 µM, first compound 0.316 µM) was 89.2%, the viability, T/C (second compound 0.03 µM, first compound 1 µM) was 73.3% and the viability, T/C (second compound 0.0949 µM, first compound 0.00316 µM) was 86.3%. The viability, T/C (second compound 0.0949 µM, first compound 0.01 µM) was 70.2%, the viability, T/C (second compound 0.0949 µM, first compound 0.0316 µM) was 63.5% and the viability, T/C (second compound 0.0949 µM, first compound 0.1 µM) was 65.8%. The viability, T/C (second compound 0.0949 µM, first compound 0.316 µM) was 65.4%, the viability, T/C (second compound 0.0949 µM, first compound 1 µM) was 60.4% and the viability, T/C (second compound 0.3 µM, first compound 0.00316 µM) was 41.7%. It also gave a viability, T/C (second compound 0.3 µM, first compound 0.01 µM) of 36.5%, a viability, T/C (second compound 0.3 µM, first compound 0.0316 µM) of 35.1% and a viability, T/C (second compound 0.3 µM, first compound 0.1 µM) of 24.6%. It also gave a viability, T/C (second compound 0.3 µM, first compound 0.316 µM) of 35.6%, a viability, T/C (second compound 0.3 µM, first compound 1 µM) of 30.3% and a viability, T/C (second compound 0.949 µM, first compound 0.00316 µM) of 13.8%. The viability, T/C (second compound 0.949 µM, first compound 0.01 µM) was 9.3%, the viability, T/C (second compound 0.949 µM, first compound 0.0316 µM) was 5.92% and the viability, T/C (second compound 0.949 µM, first compound 0.1 µM) was 4.78%. For the same compound, the viability, T/C (second compound 0.949 µM, first compound 0.316 µM) was 6.7%, the viability, T/C (second compound 0.949 µM, first compound 1 µM) was 8.64% and the viability, T/C (second compound 3 µM, first compound 0.00316 µM) was 3.86%. For the same compound, the viability, T/C (second compound 3 µM, first compound 0.01 µM) was 2.08%, the viability, T/C (second compound 3 µM, first compound 0.0316 µM) was 2.54% and the viability, T/C (second compound 3 µM, first compound 0.1 µM) was 1.28%. For the same compound, the viability, T/C (second compound 3 µM, first compound 0.316 µM) was 2.31% and the viability, T/C (second compound 3 µM, first compound 1 µM) was 1.12%.

`Cc1nc(N2CCC3(CC2)COC(C)C3N)c(CO)nc1Sc1ccnc(N)c1Cl` (stereo not drawn) + CNC(C)C(=O)NC1CN(S(=O)(=O)c2cccc(S(=O)(=O)N3CCC4CCC(C(=O)NC(c5ccccc5)c5ccccc5)N4C(=O)C(NC(=O)C(C)NC)C3)c2)CCC2CCC(C(=O)NC(c3ccccc3)c3ccccc3)N2C1=O gave an IC50 (curve of first compound, second compound 0.01 µM) of over 3000 nM, an IC50 (curve of first compound, second compound 0.0316 µM) of 1550 nM and an IC50 [1] of over 3000 nM. For the same compound, the IC50 [2] was over 3000 nM, the IC50 [3] was over 3000 nM and the viability, T/C (second compound 0.01 µM, first compound 0.00949 µM) was 102%. It also gave a viability, T/C (second compound 0.01 µM, first compound 0.03 µM) of 101%, a viability, T/C (second compound 0.01 µM, first compound 0.0949 µM) of 82.3% and a viability, T/C (second compound 0.01 µM, first compound 0.3 µM) of 71.6%. It also gave a viability, T/C (second compound 0.01 µM, first compound 0.949 µM) of 66.8%, a viability, T/C (second compound 0.01 µM, first compound 3 µM) of 48.7% and a viability, T/C (second compound 0.0316 µM, first compound 0.00949 µM) of 95.7%. For the same compound, the viability, T/C (second compound 0.0316 µM, first compound 0.03 µM) was 90.2%, the viability, T/C (second compound 0.0316 µM, first compound 0.0949 µM) was 81.6% and the viability, T/C (second compound 0.0316 µM, first compound 0.3 µM) was 72.2%. For the same compound, the viability, T/C (second compound 0.0316 µM, first compound 0.949 µM) was 53.1%, the viability, T/C (second compound 0.0316 µM, first compound 3 µM) was 44% and the viability, T/C [4] was 97.4%. It also gave a viability, T/C [5] of 92.7%, a viability, T/C [6] of 87.8% and a viability, T/C [7] of 68.5%. It also gave a viability, T/C (second compound 0.1 µM, first compound 0.949 µM) of 56.2%, a viability, T/C (second compound 0.1 µM, first compound 3 µM) of 59.9% and a viability, T/C [8] of 96.1%. The viability, T/C [9] was 93.5%, the viability, T/C [10] was 91% and the viability, T/C [11] was 75.8%. The viability, T/C (second compound 0.316 µM, first compound 0.949 µM) was 63.7%, the viability, T/C (second compound 0.316 µM, first compound 3 µM) was 50% and the viability, T/C [12] was 94.3%. The viability, T/C [13] was 87.7%, the viability, T/C [14] was 78.6% and the viability, T/C [15] was 72.3%. The viability, T/C (second compound 1 µM, first compound 0.949 µM) was 59.8% and the viability, T/C (second compound 1 µM, first compound 3 µM) was 52.1%.

For `O=C(c1cc(Cc2n[nH]c(=O)c3ccccc23)ccc1F)N1CCN(C(=O)C2CC2)CC1`, the viability, T/C (compound 0.0316 µM) was 86.5% and 104% and 109%, the viability, T/C (compound 0.1 µM) was 89.6% and 99.6% and 105% and the viability, T/C (compound 0.316 µM) was 92.9% and 93.8% and 98%. For the same compound, the viability, T/C (compound 1 µM) was 78.8% and 89.2% and 93.4%, the viability, T/C (compound 3.16 µM) was 58.8% and 71.2% and 71.8% and the viability, T/C (compound 10 µM) was 18.3% and 19.8% and 20.8%. For the same compound, the IC50 (curve of compound) was 4010 nM and 5010 nM and 5130 nM.

In the case of `NC(=O)C(=Cn1cnc(-c2cc(C(F)(F)F)cc(C(F)(F)F)c2)n1)c1cncnc1`, the viability, T/C (compound 0.000949 µM) is reported as 89.1% and 91.1% and 101%, the viability, T/C (compound 0.003 µM) is reported as 102% and 93.5% and 96.2% and the viability, T/C (compound 0.00949 µM) is reported as 83.6% and 84.6% and 93.2%. For the same compound, the viability, T/C (compound 0.03 µM) was 71.5% and 61.5% and 78%, the viability, T/C (compound 0.0949 µM) was 14.8% and 17.4% and 17.2% and the viability, T/C (compound 0.3 µM) was 3.13% and 3.94%. The IC50 (curve of compound) was 45.9 nM and 40.1 nM and 50.9 nM.

`Cc1nc(N2CCC3(CC2)COC(C)C3N)c(CO)nc1Sc1ccnc(N)c1Cl` (stereo not drawn) was tested, and the viability, T/C (compound 0.00949 µM) was 98.2% and 101% and 93%, the viability, T/C (compound 0.03 µM) was 94% and 88.4% and 87.5% and the viability, T/C (compound 0.0949 µM) was 86.9% and 73.2% and 77%. For the same compound, the viability, T/C (compound 0.3 µM) was 76.2% and 64.7% and 71.6%, the viability, T/C (compound 0.949 µM) was 65.4% and 58.5% and 56.2% and the viability, T/C (compound 3 µM) was 49.8% and 40.1% and 52.5%. The IC50 (curve of compound) was > 3000 nM and 1400 nM.

In the case of `CCN1CCN(Cc2ccc(Nc3ncc(F)c(-c4cc(F)c5nc(C)n(C(C)C)c5c4)n3)nc2)CC1`, the viability, T/C (compound 0.00316 µM) is reported as 95% and 98.3% and 99.9%, the viability, T/C (compound 0.01 µM) is reported as 82.9% and 85.2% and 108% and the viability, T/C (compound 0.0316 µM) is reported as 78% and 88.9% and 94.2%. For the same compound, the viability, T/C (compound 0.1 µM) was 73.7% and 77.4% and 81.4%, the viability, T/C (compound 0.316 µM) was 70.5% and 69.2% and 73.2% and the viability, T/C (compound 1 µM) was 63.1% and 63.3% and 75.3%. It also gave an IC50 (curve of compound) of over 1000 nM.

From PubChem BioAssay AID1963424 (Molecular Pharmacology Branch, DTP, NCI, 2024)
